Assay results published in US20210246208A1, “COMBINED INHIBITION OF PD-1/PD-L1, TGFB AND DNA-PK FOR THE TREATMENT OF CANCER” (MERCK PATENT GMBH, priority 2018, published 2021).

Tests used:
MC38 tumors = assay: M3814 and avelumab in murine colon tumor model MC38 (Example 1); type: in vivo, C57BL6/N mice; conditions: M3814 150 mg/kg orally once daily, avelumab 400 μg/mouse i.v. days 3, 6, 9; for median time the tumors needed to double in size compared to initial volume at day 0: MC38 in C57BL6/N mice, Kaplan-Meyer evaluation; for T/C value: calculated at day 13
From the text: M3814 was applied daily started from day 0; Avelumab was applied on days 3, 6 and 9.
This model allows the use of immunocompetent mice, a necessary requirement to study the T-cell mediated antitumor effect of Avelumab. The experimental set up included the induction of MC38 tumors in C57BL6/N mice by injection of 1×10^6 tumor cells into the right flank of the animals. Tumor growth was followed over time by measuring length and width using a caliper. When tumors were established to an average size of 50-100 mm^3, mice were subdivided in 4 treatment groups with 10 animals each, and treatment started. This day was defined as day 0. Group 1 received vehicle treatment. Group 2 received M3814 orally once daily at 150 mg/kg in a volume of 10 ml/kg. Group 3 received avelumab intravenously once daily at 400 μg/mouse in a volume of 5 ml/kg on days 3, 6 and 9. Group 4 received M3814 orally once daily at 150 mg/kg in a volume of 10 ml/kg and avelumab intravenously once daily at 400 μg/mouse in a volume of 5 ml/kg on days 3, 6 and 9.

[1] = test system: EMT, fibrosis and VEGF pathway gene signatures in 4T1 tumor tissue; assay: RNAseq gene signatures of 4T1 tumor tissue (Example 3G); type: in vivo, BALB/c mice; conditions: tumors harvested day 6
Experimental: Tumor tissues were harvested at Day 6 for RNAseq analysis. Gene expression signatures associated with (A) EMT, (B) fibrosis, and (C) VEGF pathway signatures are presented as box plots. Signature scores are defined as the mean log2 (fold change) among all genes in the signature.
RNAseq was performed with Qiagen targeted RNAseq panels consisting of 1278 total genes. EMT and fibrosis gene signatures were based on Qiagen gene lists and the VEGF pathway signature was based on the Biocarta VEGF pathway in Broad's Canonical Pathways. For these gene sets, signature scores are defined as the mean log2 (fold-change) among all genes in each gene signature. These were calculated by adding a pseudocount of 0.5 TPM to all genes and samples, determining the log2 (TPM), then subtracting the median log 2-TPM for each gene across all samples from the log2-TPM for each gene. Signature scores for gene sets are shown as boxplots.

DNA-PK = DNA-PK (Homo sapiens, UniProt P78527); assay: Crystallographic and enzyme kinetics studies on DNA-PK; type: biochemical
From the text: DNA-PK, together with five additional protein factors (Ku70, Ku80, XRCC4, Ligase IV and Artemis) plays a critical role in the repair of DSB via NHEJ. Kinase activity of DNA-PK is essential for proper and timely DNA repair and the long-term survival of cancer cells.

4T1 mammary tumors = assay: 4T1 mammary tumor model, tumor volume and survival (Example 3A); conditions: concurrent dosing; day 10; Trap 492 μg day 0, 2, 4; radiation 8 Gy day 0-3; M3814 150 mg/kg p.o. q.d. day 0-14
Experimental: BALB/c mice were inoculated intramuscularly (i.m.) with 0.5×10^5 4T1 cells (day −6) and treated (n=10 mice/group) with (A-C) isotype control (400 μg i.v.; day 0, 2, 4)+vehicle control (0.2 mL, orally [per os; p.o.], once daily [quaque die; q.d.], day 0-14), M7824 (492 μg i.v.; day 0, 2, 4), radiation (8 Gy, day 0-3), M3814 (150 mg/kg, p.o, q.d., day 0-14), M7824+RT, M7824+M3814, RT+M3814, or M7824+RT+M3814; or (D-F) isotype control (400 μg i.v.; day 4, 6, 8)+vehicle control (0.2 mL, (p.o.), (q.d.), day 0-14), M7824 (492 μg i.v.; day 4, 6, 8), radiation (8 Gy, day 0-3), M3814 (150 mg/kg, p.o, q.d., day 0-14), M7824+RT, M7824+M3814, RT+M3814, or M7824+RT+M3814. A-B, D-E, Tumor volumes were measured twice weekly and presented as (A, D) mean±SEM or (B, E) individual tumor volumes. P-values were calculated by two-way RM ANOVA with Tukey's post-test. C, F, For survival analysis, mice were sacrificed when tumor volumes reached ≈2000 mm^3 and median survival times were calculated.
For efficacy and survival studies, 4T1 cells, 0.5×10^5, were inoculated intramuscularly (i.m.) in the thigh of BALB/c mice on day −6. […]
Tumor sizes for the 4T1 and MC38 models were measured twice per week with digital calipers and recorded automatically using WinWedge software. Tumor volumes were calculated with the following formula: tumor volume (mm^3)=tumor length×width×height×0.5236. […]

[2] = 10 mg/kg dose; cited from earlier work

COc1ccc([C@@H](O)c2cc(-c3ncnc4cc(N5CCOCC5)ccc34)c(F)cc2Cl)nn1 [Compound M3814, (S)-[2-chloro-4-fluoro-5-(7-morpholin-4-yl-quinazolin-4-yl)-phenyl]-(6-methoxypyridazin-3-yl)-methanol]
median time the tumors needed to double in size compared to initial volume at day 0 (MC38 tumors): 10 days | T/C value (MC38 tumors): 47% | EMT signature score [1]: no effect on the EMT signature | fibrosis signature score [1]: significantly decreased the score | inhibition of DNA-PK (DNA-PK): potent and selective ATP-competitive inhibitor of DNA-PK | tumor volume (4T1 mammary tumors): did not significantly affect tumor growth

avelumab: fully human monoclonal antibody of the immunoglobulin (Ig) G1 isotype that selectively binds to PD-L1
median time the tumors needed to double in size compared to initial volume at day 0 (MC38 tumors): 13 days | T/C value (MC38 tumors): 60% | pharmacokinetics profile [2]: predictable pharmacokinetics profile | receptor occupancy [2]: excellent receptor occupancy | tolerability [2]: well tolerated
